These are literature values, as cited in CN117800914A, “一种抗SARS-CoV-2病毒奥密克戎突变种抑制剂” (Second Military Medical University SMMU, priority 2023, dated 2024).

In this data set the test system is COVID-19. The settings on record: early use, cited from earlier work.

For the compound `CCC(CC)COC(=O)[C@H](C)N[P@](=O)(OC[C@H]1O[C@@](C#N)(c2ccc3c(N)ncnn23)[C@H](O)[C@@H]1O)Oc1ccccc1` [瑞德西韦], the “reduction of risk of severe COVID-19” value is 87%.
On to `CC(C)C(=O)OC[C@H]1O[C@@H](n2ccc(NO)nc2=O)[C@H](O)[C@@H]1O` [莫那匹韦], for which the “reduction of risk of hospitalization/death (in words)” value (mild to moderate patients at risk of progression) is listed as “可降低住院/死亡风险”.
